How the values were obtained:
[1] = FAERS-based analysis, rank order; cited from earlier work
db/db mice [2] = experiment: Blood glucose testing in db/db mice, TBN/TN-2 alone and with Empagliflozin (Example 1); format: in vivo; conditions: for Changes in blood glucose: 6 weeks, compared to Model group; for blood sugar (in words): in combination with a SGLT-2 inhibitor
Text: (§1) Db/db mice are type II diabetes mice caused by leptin receptor gene defect located on chromosome 4. They began to drink, eat, urinate and be obese at the age of 4 weeks. With the increase of age, they have obvious characteristics of hyperglycemia, hyperlipidemia and insulin resistance. Their pathogenesis is very similar to that of type II diabetes patients. With the aggravation of diabetes, db/db mice have a series of complications. The main pathological changes of kidney tissue are dilation of glomerular mesangial interstitium, thickening of glomerular basement membrane, excessive accumulation of extracellular matrix, etc. It is a good model to study the early morphological changes of DKD kidney.
(§2) 6-week-old db/db mice were given adaptive feeding for 1 week (i.e. 7 weeks), with TBN and TN-2 administered separately and in combination with Empagliflozin twice a day (fixed at 9:00-10:00 am and 3:00-4:00 pm, with an interval of 6 hours), for a continuous 6 weeks of administration.
During the experiment, blood was collected from the tail vein of mice before the start of administration (7 weeks old) to measure their blood glucose levels; After the completion of administration (at 13 weeks of mouse age, i.e. the end of the experiment), serum was taken and the blood glucose levels of each group of mice were measured using a fully automated biochemical analyzer.

IL-1β = experiment: Detection of the level of IL-1β in serum of db/db mice by ELISA kit (Example 1); format: in vivo; conditions: 6 weeks, compared to Model group
Text: as §1, §2
(§3) After 6 weeks of administration, the whole blood was left to stand at room temperature for 1 hour. Then, it was transferred to a centrifuge and centrifuged at 3000 rpm for 10 minutes. The upper layer of serum was taken out and placed in an EP tube and stored in a −20° C. freezer for later use. Detection the level of IL-6 and IL-1β in serum of mice in each group using ELISA kit.

IL-6 = experiment: Detection of the level of IL-6 in serum of db/db mice by ELISA kit (Example 1); format: in vivo; conditions: for Changes in IL-6: 6 weeks, serum of db/db mice, compared to Model group; for content of IL-6 in the serum of model animals (in words): alone or in combination with a SGLT-2 inhibitor (such as Entegliflozin)
Text: as §1, §2, §3

db/db mice [3] = experiment: Detection of 24-hour urinary microalbumin in db/db mice by ELISA kit (Example 1); format: in vivo; conditions: for Changes in urinary microalbumin: 24-hour urine, compared to Model group; for 24-hour urinary microalbumin (in words): in combination with a SGLT-2 inhibitor
Text: as §1, §2
Db/db mice were tested for 24-hour urinary microalbumin at 4 and 6 weeks after drug treatment. Each group of mice was placed in a metabolic cage, drinking water freely, and 24-hour urine samples were collected. After centrifugation and precipitation, the levels of microalbuminuria in the 24-hour urine of each group of mice were detected using an ELISA kit.

db/db mice [4] = experiment: Urinary albumin creatinine ratio in db/db mice; format: in vivo; conditions: in combination with a SGLT-2 inhibitor
[5] = test system: Patients of type II diabetic kidney disease; experiment: Clinical trial of TBN and TBN + SGLT2i: change of UACR relative to baseline (Example 3); format: in vivo, human
Protocol: The present invention adopts a test design of multicenter, randomized, double-blind, placebo-controlled parallel control.
Subjects of the experiments: Patients of type II diabetic kidney disease were taken as the subjects in the experiments (all signed the informed consent form). In at least 2 of the 3 morning urine in the screening period, the urinary microalbumin/creatinine ratio (UACR) is of ≥30 mg/g and <300 mg/g.
The medication schedule: Administration of 180 consecutive days. In this example, SGLT2i is commercially available SGLT2i, selected from Engliflozin, Dapagliflozin, and Cargliflozin: Engliflozin once daily, 10 mg; Dapagliflozin once daily, 10 mg; Kagliflozin once daily, 100 mg. In the three subjects in the 300 mg TBN+SGLT2i group, one subject took Engliflozin and two subjects took Dapagliflozin; in the three subjects in the 600 mg TBN+SGLT2i group, all took Dapagliflozin; in the […] in the 1200 mg TBN+SGLT2i group, two subjects took Canagliflozin, one subject took Entegliflozin, and one subject took Dapagliflozin; in the SGLT2i group, one subject took Dapagliflozin.

[6] = Empagliflozin 2.5 mg/kg twice/day i.g.
[7] = Empagliflozin 5 mg/kg twice/day i.g.

## OC[C@H]1O[C@@H](c2ccc(Cl)c(Cc3ccc(O[C@H]4CCOC4)cc3)c2)[C@H](O)[C@@H](O)[C@@H]1O [Empagliflozin, reference compound]
[1]
  signal intensity comparison of urinary tract infections: dapagliflozin>canagliflozin>empagliflozin
db/db mice [2]; [6]
  Changes in blood glucose: −38.03%
db/db mice [2]; [7]
  Changes in blood glucose: −44.33%
IL-1β; [6]
  Changes in IL-1β: −2.36%
IL-1β; [7]
  Changes in IL-1β: −16.32%
IL-6; [6]
  Changes in IL-6: −8.55%
IL-6; [7]
  Changes in IL-6: −75.05%
db/db mice [3]; [6]
  Changes in urinary microalbumin: −4.18%
db/db mice [3]; [7]
  Changes in urinary microalbumin: −18.62%

## Cc1nc(C)c(/C=[N+](\[O-])C(C)(C)C)nc1C [TBN, tetramethylpyrazine nitrone]
db/db mice [4]
  urinary albumin creatinine ratio (in words): reduce
[5]; TBN 300 mg twice/day po, n = 18, Day 90
  Percentage of changes in UACR relative baseline, Day 90 LS Mean: −1.48%
[5]; TBN 600 mg twice/day po, n = 19, Day 90
  Percentage of changes in UACR relative baseline, Day 90 LS Mean: −43.32%
[5]; TBN 1200 mg twice/day po, n = 14, Day 90
  Percentage of changes in UACR relative baseline, Day 90 LS Mean: −37.08%
db/db mice [2]; TBN 10 mg/kg twice/day i.g.
  Changes in blood glucose: −0.80%
db/db mice [2]; TBN 30 mg/kg twice/day i.g.
  Changes in blood glucose: −17.13%
db/db mice [2]
  blood sugar (in words): synergistically lower
IL-1β; TBN 10 mg/kg twice/day i.g.
  Changes in IL-1β: −5.88%
IL-1β; TBN 30 mg/kg twice/day i.g.
  Changes in IL-1β: 0.20%
IL-6; TBN 10 mg/kg twice/day i.g.
  Changes in IL-6: −36.43%
IL-6; TBN 30 mg/kg twice/day i.g.
  Changes in IL-6: −58.34%
IL-6
  content of IL-6 in the serum of model animals (in words): significantly reduce
db/db mice [3]; TBN 10 mg/kg twice/day i.g.
  Changes in urinary microalbumin: −0.61%
db/db mice [3]; TBN 30 mg/kg twice/day i.g.
  Changes in urinary microalbumin: −23.09%
db/db mice [3]
  24-hour urinary microalbumin (in words): reduce

## CCOc1ccc(Cc2cc([C@@H]3O[C@H](CO)[C@@H](O)[C@H](O)[C@H]3O)ccc2Cl)cc1 [Dapagliflozin]
[1]
  signal intensity comparison of urinary tract infections: dapagliflozin>canagliflozin>empagliflozin

## Cc1nc(/C=[N+](\[O-])C(C)(C)C)c(C)nc1/C=[N+](\[O-])C(C)(C)C [TN-2]
db/db mice [4]
  urinary albumin creatinine ratio (in words): reduce
db/db mice [2]
  blood sugar (in words): synergistically lower
IL-6
  content of IL-6 in the serum of model animals (in words): significantly reduce
db/db mice [3]
  24-hour urinary microalbumin (in words): reduce
